Results from patent publication US8592422B2, “Bicyclic triazole and pyrazole lactams as allosteric modulators of mGluR5 receptors” (Vanderbilt University, priority 2010, dated 2013).

Molecular target: T1, human mGluR5a receptor (Homo sapiens, UniProt P41594)
T1 construct: cDNA subcloned into pcDNA3.1(-)
Experiment: Cell-based functional Ca2+ mobilization assay (FDSS), potentiation of glutamate EC20 response
Settings: for pEC50 / EC50: HEK cells transfected with human mGluR5 (H10H or H12H), in presence of EC20 glutamate; for EC50: read-out: EC50; for Emax (%) / Emax: maximum % effect in concentration-response curve, as percent of response to maximally effective glutamate
Description: Human embryonic kidney (HEK) cells transfected with rat mGluR5 were plated in clear bottom assay plates for assay in a Functional Drug Screening System (FDSS). In the alternative assay, HEK cells transfected with human mGluR5 were plated for assay in the FDSS. In some cases the HEK cells transfected with human mGluR5 were the H10H cell line. Alternatively, the HEK cells transfected with human mGluR5 were the H12H cell line. […] The cells were loaded with a Ca^2+-sensitive fluorescent dye (e.g., Fluo-4), and the plates were washed and placed in the FDSS instrument. After establishment of a fluorescence baseline for twelve seconds, the compounds of the present invention were added to the cells, and the response in cells was measured. Alternatively, in various further aspects, after establishment of a fluorescence baseline for about three seconds, the compounds of the present invention were added to the cells, and the response in cells was measured. Five minutes later, an mGluR5 agonist (e.g., glutamate, 3,5-dihydroxyphenylglycine, or quisqualate) was added to the cells, and the response of the cells was measured.
The above described assay operated in two modes. In the first mode, a range of concentrations of the present compounds were added to cells, followed by a single fixed concentration of agonist. If a compound acted as a potentiator, an EC50 value for potentiation and a maximum extent of potentiation by the compound at this concentration of agonist was determined by non-linear curve fitting. In the second mode, several fixed concentrations of the present compounds were added to various wells on a plate, followed by a range of concentrations of agonist for each concentration of present compound; the EC50 values for the agonist at each concentration of compound were determined by non-linear curve fitting. A decrease in the EC50 value of the agonist with increasing concentrations of the present compounds (a leftward shift of the agonist concentration-response curve) is an indication of the degree of mGluR5 potentiation at a given concentration of the present compound. An increase in the EC50 value of the agonist with increasing concentrations of the present compounds (a rightward shift of the agonist concentration-response curve) is an indication of the degree of mGluR5 antagonism at a given concentration of the present compound. The second mode also indicates whether the present compounds also affect the maximum response to mGluR5 to agonists.
The mGluR5 activity was determined using the metabotropic glutamate receptor activity assays in human embryonic kidney cells as described herein, wherein the human embryonic kidney cells were transfected with human mGluR5. The compounds in Table 1 were synthesized with methods identical or analogous to those shown herein. The requisite starting materials were commercially available, described in the literature, or readily synthesized by one skilled in the art of organic synthesis. The compound number given in Table I corresponds to the compound number in Table II and the structure given therein.
Human mGluR5a cDNA in pCMV6-XL6 mammalian expression plasmid was purchased from OriGene Technologies, Inc. (catalogue number SC326357) and subcloned into pcDNA3.1(−). Human embryonic kidney (HEK) 293A cells were then transfected with human mGluR5a pcDNA3.1(−) using LipofectAmine-2000 (Invitrogen) and monoclones were selected and tested for functional response using a Ca^2+ mobilization assay. Monoclones were named for the species (“H” for human) plus the location on the plate (e.g. “10H”).
HEK cells transfected with the human mGluR5a receptor (H10H or H12H cell line) were plated at 15,000 cells/well in clear-bottomed poly-D-lysine-coated assay plates (BD Falcon) in glutamate-glutamine-free growth medium and incubated overnight at 37° C. and 5% CO2.

T1 sequence (P41594 21-1180 isoform P41594-2 limits assumed): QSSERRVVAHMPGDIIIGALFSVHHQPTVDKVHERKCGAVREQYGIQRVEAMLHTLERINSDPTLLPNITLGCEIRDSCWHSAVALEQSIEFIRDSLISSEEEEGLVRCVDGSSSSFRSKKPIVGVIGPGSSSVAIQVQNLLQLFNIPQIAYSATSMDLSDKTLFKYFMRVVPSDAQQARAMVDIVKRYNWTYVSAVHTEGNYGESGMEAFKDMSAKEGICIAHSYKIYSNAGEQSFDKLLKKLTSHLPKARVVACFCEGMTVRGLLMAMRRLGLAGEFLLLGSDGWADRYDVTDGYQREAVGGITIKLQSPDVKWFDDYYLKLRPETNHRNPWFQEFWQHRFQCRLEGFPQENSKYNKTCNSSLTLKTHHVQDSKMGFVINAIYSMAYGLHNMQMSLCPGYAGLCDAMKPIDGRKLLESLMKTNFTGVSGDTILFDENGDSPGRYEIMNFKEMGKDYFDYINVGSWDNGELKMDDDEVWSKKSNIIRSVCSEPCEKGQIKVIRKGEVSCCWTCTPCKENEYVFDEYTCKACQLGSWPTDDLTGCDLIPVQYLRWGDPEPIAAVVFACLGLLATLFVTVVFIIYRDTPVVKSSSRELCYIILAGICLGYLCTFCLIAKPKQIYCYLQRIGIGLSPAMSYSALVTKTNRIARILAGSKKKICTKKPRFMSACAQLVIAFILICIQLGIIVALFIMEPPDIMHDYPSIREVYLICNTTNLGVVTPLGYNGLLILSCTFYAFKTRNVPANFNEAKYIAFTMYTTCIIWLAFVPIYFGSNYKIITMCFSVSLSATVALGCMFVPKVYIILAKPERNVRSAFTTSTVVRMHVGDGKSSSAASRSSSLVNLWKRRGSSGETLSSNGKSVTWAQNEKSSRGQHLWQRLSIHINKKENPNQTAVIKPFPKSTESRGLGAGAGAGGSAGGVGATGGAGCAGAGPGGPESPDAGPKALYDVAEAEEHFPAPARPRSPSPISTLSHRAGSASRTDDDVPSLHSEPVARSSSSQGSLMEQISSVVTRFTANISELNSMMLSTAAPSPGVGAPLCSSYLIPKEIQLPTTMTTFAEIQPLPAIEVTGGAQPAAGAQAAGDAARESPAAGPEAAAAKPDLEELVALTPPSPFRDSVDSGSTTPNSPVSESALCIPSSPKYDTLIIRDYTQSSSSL

| pEC50 | EC50 [nM] | Emax (%) | Emax [%] | Structure (SMILES) |
| --- | --- | --- | --- | --- |
| 7.27 | 53 | 60 |  | Cc1ccc(N2CCn3nc(COc4ccccc4)cc3C2=O)cc1F [Example 62] |
| 6.26 | 550 | 67 |  | O=C1c2cc(COc3ccccc3)nn2CCN1c1ncccc1F [Example 81] |
| 5.81 | 1550 | 61 |  | Cc1ccnc(N2CCn3nc(COc4ccccc4)cc3C2=O)n1 [Example 82] |
|  | 437 |  | 72 | COCCOc1cccc(N2CCn3nc(COc4ccccc4)cc3C2=O)n1 [Example 85] |
| 6.75 | 178 | 72 |  | Cc1ccc(F)c(N2CCn3nc(COc4ccccc4)cc3C2=O)n1 [Example 88] |
| <5.00 | > 10000 | 75 |  | COc1ccc(N2CCn3nc(COc4ccccc4)cc3C2=O)nn1 [Example 89] |
| 6.51 | 309 | 71 |  | Cc1cncc(N2CCn3nc(COc4ccccc4)cc3C2=O)n1 [Example 92] |
| <4.52 | > 30200 | 29 |  | Cc1cnnc(N2CCn3nc(COc4ccccc4)cc3C2=O)c1 [Example 93] |
| 6.29 | 513 | 65 |  | Cc1nccc(N2CCn3nc(COc4ccccc4)cc3C2=O)n1 [Example 94] |
| 7.01 | 98 | 68 |  | COc1nc(N2CCn3nc(COc4ccccc4)cc3C2=O)ncc1C [Example 97] |
| 6.13 | 741 | 63 |  | COc1nc(C)cc(N2CCn3nc(COc4ccccc4)cc3C2=O)n1 [Example 98] |
| 6.70 | 200 | 68 |  | COc1nccc(N2CCn3nc(COc4ccccc4)cc3C2=O)n1 [Example 110] |
| 5.69 | 2000 | 67 |  | COc1cncnc1N1CCn2nc(COc3ccccc3)cc2C1=O [Example 118] |
|  | 2300 |  | 72 | COc1cnc(C)nc1N1CCn2nc(COc3ccccc3)cc2C1=O [Example 119] |
| 6.13 | 741 | 56 |  | CC1Cn2nc(COc3ccccc3)cc2C(=O)N1CC1CC1 (stereo not drawn) [Example 136] |
| 7.19 | 65 | 68 |  | CC1Cn2nc(COc3ccccc3)cc2C(=O)N1c1ccc(F)cc1 (stereo not drawn) [Example 142] |
| 5.85 | 1410 | 59 |  | COc1nccc(N2C(=O)c3cc(COc4ccccc4)nn3CC2C)n1 (stereo not drawn) [Example 145] |
| 6.27 | 537 | 72 |  | COc1nc(N2C(=O)c3cc(COc4ccccc4)nn3CC2C)ncc1F (stereo not drawn) [Example 147] |
| 7.22 | 60 | 71 |  | Cc1cccc(N2C(=O)c3cc(COc4ccccc4)nn3CC2C)c1 (stereo not drawn) [Example 153] |
|  | 1320 |  | 68 | O=C1c2cc(COc3cncc(F)c3)nn2CCN1c1ccc(F)cc1 [Example 161] |
|  | 2240 |  | 63 | O=C1c2cc(COc3ccncc3)nn2CCN1CC1CC1 [Example 163] |
| 6.98 | 105 | 71 |  | O=C1c2cc(COc3ccc(F)cc3)nn2CCN1c1ccc(F)cc1 [Example 165] |
| 6.58 | 263 | 64 |  | O=C1c2cc(COc3ccc(F)cc3)nn2CCN1CC1CC1 [Example 167] |

The remaining lines, values behind:

| Structure (SMILES) | pEC50 | EC50 [nM] | Emax (%) | Emax [%] |
| --- | --- | --- | --- | --- |
| Cc1ccc(F)cc1N1CCn2nc(COc3ccccc3)cc2C1=O [Example 61] | 7.19 | 65 | 68 |  |
| COCc1ccccc1N1CCn2nc(COc3ccccc3)cc2C1=O [Example 63] | 6.37 | 430 | 68 |  |
| O=C1c2cc(COc3ccccc3)nn2CCN1c1cccc(C2CC2)n1 [Example 66] | 7.03 | 93 | 72 |  |
| COc1nc(N2CCn3nc(COc4ccccc4)cc3C2=O)ccc1F [Example 73] | 7.64 | 23 | 67 |  |
| O=C1c2cc(COc3ccccc3)nn2CCN1c1cccc(CCF)n1 [Example 75] | 6.69 | 204 | 68 |  |
| O=C1c2cc(COc3ccccc3)nn2CCN1c1ncccn1 [Example 77] | <5.00 | > 10000 | 42 |  |
| COc1cccnc1N1CCn2nc(COc3ccccc3)cc2C1=O [Example 79] | 5.66 | 2190 | 48 |  |
| Cc1cc(F)cnc1N1CCn2nc(COc3ccccc3)cc2C1=O [Example 86] | 6.69 | 204 | 73 |  |
| COc1nc(N2CCn3nc(COc4ccccc4)cc3C2=O)ncc1F [Example 91] | 7.19 | 65 | 71 |  |
| N#Cc1cccc(N2CCn3nc(COc4ccccc4)cc3C2=O)n1 [Example 95] | 6.82 | 150 | 54 |  |
| COc1cnc(N2CCn3nc(COc4ccccc4)cc3C2=O)cn1 [Example 101] | 6.53 | 295 | 78 |  |
| COc1nccnc1N1CCn2nc(COc3ccccc3)cc2C1=O [Example 103] | 7.03 | 93 | 72 |  |
| COc1ncc(C)c(N2CCn3nc(COc4ccccc4)cc3C2=O)n1 [Example 106] |  | 389 |  | 53 |
| COc1ccc(C)c(N2CCn3nc(COc4ccccc4)cc3C2=O)n1 [Example 109] | 7.13 | 74 | 63 |  |
| COc1cncc(N2CCn3nc(COc4ccccc4)cc3C2=O)n1 [Example 112] | 6.98 | 105 | 69 |  |
| COc1ncncc1N1CCn2nc(COc3ccccc3)cc2C1=O [Example 113] |  | 724 |  | 57 |
| COc1ccnc(N2CCn3nc(COc4ccccc4)cc3C2=O)c1 [Example 115] | 5.96 | 1100 | 66 |  |
| COc1cc(N2CCn3nc(COc4ccccc4)cc3C2=O)nc(OC)n1 [Example 122] | 6.91 | 120 | 61 |  |
| COc1cnnc(N2CCn3nc(COc4ccccc4)cc3C2=O)c1 [Example 125] |  | > 10000 |  | 48 |
| COc1cc(OC)nc(N2CCn3nc(COc4ccccc4)cc3C2=O)n1 [Example 127] | 6.68 | 210 | 63 |  |
| CC1Cn2nc(COc3ccccc3)cc2C(=O)N1c1ccc(F)cn1 (stereo not drawn) [Example 139] | 6.05 | 891 | 43 |  |
| CC1Cn2nc(COc3ccccc3)cc2C(=O)N1c1ccc(F)cc1 (stereo not drawn) [Example 157] | 6.24 | 575 | 63 |  |
| O=C1c2cc(COc3cccnc3)nn2CCN1c1ccc(F)cc1 [Example 158] |  | 3090 |  | 69 |
| O=C1c2cc(COc3ccccn3)nn2CCN1c1ccc(F)cc1 [Example 159] | 6.32 | 479 | 69 |  |
| O=C1c2cc(COc3ccccn3)nn2CCN1CC1CC1 [Example 162] |  | 2510 |  | 47 |
| N#Cc1cccc(OCc2cc3n(n2)CCN(CC2CC2)C3=O)c1 [Example 164] | <4.52 | > 30200 | 28 |  |
